Data on 7 molecules can be found in ChEMBL document CHEMBL5375994, “Advances in Development of Selective Antitumor Inhibitors That Target PARP-1” (J Med Chem, 2023).

Structures are written as SMILES.

The IC50 is the concentration needed to halve the response being measured.

Experiment [1] addresses Poly [ADP-ribose] polymerase 2 (Homo sapiens, UniProt Q9UGN5). Kind of experiment: Inhibition of PARP-2 (unknown origin).
For experiment [2], the target named is Poly [ADP-ribose] polymerase 1 (Homo sapiens, UniProt P09874). As to the kind of experiment: Inhibition of human recombinant PARP-1.
Sequence of Poly [ADP-ribose] polymerase 1 (P09874 whole entry): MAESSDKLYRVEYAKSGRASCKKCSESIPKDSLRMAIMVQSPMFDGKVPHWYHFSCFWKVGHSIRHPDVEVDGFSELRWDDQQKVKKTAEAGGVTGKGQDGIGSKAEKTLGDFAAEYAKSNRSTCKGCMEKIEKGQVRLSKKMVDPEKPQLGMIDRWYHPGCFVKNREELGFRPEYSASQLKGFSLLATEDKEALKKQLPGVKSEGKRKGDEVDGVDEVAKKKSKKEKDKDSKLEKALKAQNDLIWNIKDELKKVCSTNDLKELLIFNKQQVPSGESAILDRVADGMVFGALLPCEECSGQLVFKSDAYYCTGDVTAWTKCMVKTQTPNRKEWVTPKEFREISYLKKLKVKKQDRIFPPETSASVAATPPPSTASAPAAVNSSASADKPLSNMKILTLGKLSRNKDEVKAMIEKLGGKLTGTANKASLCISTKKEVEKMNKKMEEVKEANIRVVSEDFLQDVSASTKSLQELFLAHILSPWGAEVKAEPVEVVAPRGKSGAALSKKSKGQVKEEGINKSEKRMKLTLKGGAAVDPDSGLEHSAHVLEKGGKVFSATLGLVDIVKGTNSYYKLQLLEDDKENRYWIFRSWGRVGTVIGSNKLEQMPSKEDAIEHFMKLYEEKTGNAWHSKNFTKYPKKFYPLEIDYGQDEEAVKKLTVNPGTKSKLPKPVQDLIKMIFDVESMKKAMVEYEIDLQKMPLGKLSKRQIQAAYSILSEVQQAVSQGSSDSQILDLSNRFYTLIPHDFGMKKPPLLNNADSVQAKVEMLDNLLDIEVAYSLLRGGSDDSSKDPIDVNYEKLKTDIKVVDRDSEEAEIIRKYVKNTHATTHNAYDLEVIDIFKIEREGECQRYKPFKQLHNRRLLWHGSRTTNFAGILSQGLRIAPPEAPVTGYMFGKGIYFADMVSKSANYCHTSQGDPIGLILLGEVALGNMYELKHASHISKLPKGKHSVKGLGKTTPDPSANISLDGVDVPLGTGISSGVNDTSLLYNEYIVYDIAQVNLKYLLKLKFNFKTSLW

Sequence of Poly [ADP-ribose] polymerase 2 (Q9UGN5 whole entry): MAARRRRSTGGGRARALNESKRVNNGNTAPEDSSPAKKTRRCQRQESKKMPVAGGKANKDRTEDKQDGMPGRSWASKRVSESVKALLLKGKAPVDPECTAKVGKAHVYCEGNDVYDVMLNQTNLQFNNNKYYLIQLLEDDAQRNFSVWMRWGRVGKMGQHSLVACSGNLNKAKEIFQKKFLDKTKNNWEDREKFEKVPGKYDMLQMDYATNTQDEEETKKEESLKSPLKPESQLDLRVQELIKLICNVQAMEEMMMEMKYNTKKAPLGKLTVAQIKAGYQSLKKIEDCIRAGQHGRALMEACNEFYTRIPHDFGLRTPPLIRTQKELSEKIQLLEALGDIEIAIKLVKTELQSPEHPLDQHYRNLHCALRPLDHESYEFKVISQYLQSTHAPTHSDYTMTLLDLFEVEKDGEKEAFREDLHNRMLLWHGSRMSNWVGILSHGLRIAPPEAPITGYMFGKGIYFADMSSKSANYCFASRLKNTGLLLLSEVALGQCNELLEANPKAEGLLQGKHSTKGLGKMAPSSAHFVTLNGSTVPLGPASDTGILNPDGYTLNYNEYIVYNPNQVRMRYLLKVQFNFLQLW

Take `O=c1[nH]c(CCCN2CCC(c3ccccc3)CC2)nc2ccccc12`: the results for the IC50 in experiment [1] and in experiment [2] were 0.608 µM and 0.021 µM, respectively.
`O=c1[nH]c(CCCN2CCC(c3ccccc3)CC2)nc2c(Cl)cccc12`: the IC50 was determined as 0.61 µM in experiment [1] and 0.023 µM in experiment [2].
As for `O=c1[nH]c(CCCN2CCC(c3ccc(F)cc3)CC2)nc2c(Cl)cccc12`, the figures for the IC50 in experiment [1] and in experiment [2] were 0.5 µM and 0.013 µM, respectively.
Take `N#Cc1ccc(C2CCN(CCCc3nc4c(Cl)cccc4c(=O)[nH]3)CC2)cc1`: the IC50 in experiment [1] turned out to be 0.087 µM; in experiment [2] it was 0.003 µM.
`Cc1cccc2c(=O)[nH]c(CCCN3CCC(c4ccc(F)cc4)CC3)nc12`: the results for the IC50 in experiment [1] and in experiment [2] were 0.167 µM and 0.016 µM, respectively.
`O=c1[nH]c(CCCN2CCC(c3ccccc3)CC2)nc2cccc(Cl)c12`: the IC50 in experiment [1] was 0.63 µM; in experiment [2], 0.068 µM.
For `O=c1[nH]c(CCCN2CCN(c3ccccc3)CC2)nc2cccc(Cl)c12`, in that order: 0.3 µM and 0.011 µM.
